Reference: patent US20130252959A1, “NITRIC OXIDE DONORS IN THERAPY OF NITRIC OXIDE DEFICIENCY-INDUCED DISTURBANCES OF CEREBRAL MICROCIRCULATION” (West-Falische Wilhelms-Universitat Munster, priority 2010, published 2013)
“Also recorded” adds a separate entry of the source.

How the values were obtained:
[1] = system: CVS; conditions: cited from earlier work
[2] = system: CVS and ischemia; conditions: intrathecal, local or intraventricular application; humans or laboratory animal; cited from earlier work
[3] = system: patients with SAH after aneurysmal rupture; assay: Spasm (CVS) related brain infarcts on CCT in SAH patients, Molsidomine in addition to standard therapy vs standard Nimodipine therapy; assay type: in vivo, human
Protocol: CCT at the beginning and after treatment were analyzed independently by two experienced neuroradiologists and were scanned for development of delayed brain infarction. At least three months after discharge a modified NIH-SS and a modified Rankin Scale (mRS) for clinical follow up was assessed. 83 patients admitted to the Intensive Care Unit of the University Hospital of Munster, Germany, after spontaneous aneurysmal SAH were registered in an observational study. […] These patients were excluded from further evaluation. […] Out of 76 individuals 27 patients received Molsidomine i.v. in an individually up-titrated dosage with a target quantity of 3.5-10 mg/h dependent on systemic circulation reactions. […] Within 24 h after admission to the ICU patients were treated with coil embolization and/or clipping. […] Appearance of CVS. Male and female patients with an age of 18 years and written informed consent for the additional application of Molsidomine. Spontaneous SAH after aneurysmal rupture and a clinical stage of Hunt and Hess grade Ito V. Exclusion criteria for patients were: No detected CVS. […] CCT and DSA images were independently reported by two experienced neuroradiologists for infarction and vasospasm. CVS related infarcts were diagnosed if hypodense lesions could be detected 72 h or later after therapeutic intervention or operation in comparison to the 24 h control CCT scan and being accompanied by clinical deterioration due to CVS or positive Doppler ultrasound or CVS in DSA.

[4] = system: patients with SAH after aneurysmal rupture; assay: Clinical outcome by modified NIH-SS and modified Rankin Scale at least three months after discharge; assay type: in vivo, human
Excerpt: The National Institutes of Health stroke scale (NIH-SS) is a graded neurological examination that assesses speech, language cognition, inattention, visual field abnormalities, motor and sensory impairments, and ataxia. The scale was developed for use in acute-stroke therapy trials and has since been widely used as a standard part of the assessment in clinical trials. This scale, along with many others, has been evaluated in its clinical usefulness in the assessment of the stroke patient. The NIH-SS permits a high-resolution evaluation of a patient's neurological status. To obtain the finding on the NIH-SS, various neurological aspects are investigated and assigned point scores. The total point score is a measure of the severity of the symptoms of stroke, the point score increasing with the severity of the symptoms. This rating scale is also suitable for monitoring the course of the symptoms after stroke and for quantifying the success of any treatment used. In general, it is possible to establish a correlation between the size of the infarct and the severity of the stroke as quantified by the stroke scale.
Rating scales such as the NIH-SS or the modified Rankin scale are generally used for the quantitative evaluation of the severity of a cerebral disorder, whether acute or under treatment.
CCT at the beginning and after treatment were analyzed independently by two experienced neuroradiologists and were scanned for development of delayed brain infarction. At least three months after discharge a modified NIH-SS and a modified Rankin Scale (mRS) for clinical follow up was assessed.
83 patients admitted to the Intensive Care Unit of the University Hospital of Munster, Germany, after spontaneous aneurysmal SAH were registered in an observational study. Seven patients died in the first 124 hours after admission, without detected CVS probably related to malignant brain edema and severity of initial SAH. These patients were excluded from further evaluation.
Out of 76 individuals 27 patients received Molsidomine i.v. in an individually up-titrated dosage with a target quantity of 3.5-10 mg/h dependent on systemic circulation reactions. The remaining 49 patients received standard therapy.
After a minimum of three months the modified NIH and modified Rankin status were determined in order to control clinical outcome of patients (NIH-SS and mRS).

[5] = system: patients with SAH after aneurysmal rupture; assay: CVS detected by TCD (trans-cranial doppler); assay type: in vivo, human
Excerpt: TCD (trans-cranial doppler) is a diagnostic procedure using ultrasound waves to measure blood flow through the major blood vessels of the brain. In particular, the purpose of this test is to detect any narrowing or blockage in arteries located at the base of the brain that may decrease or stop the flow of blood to the brain and increase blood flow velocities according to narrowed vessel diameter. The test is most useful at detecting decreased blood flow through narrow areas inside blood vessels. TCDs are especially useful for monitoring blood flow in the brain of stroke patients who are affected by brain swelling and vasospasm (which are cerebral blood vessel spasms).
The treatment with Molsidomine was applied if vasospasm was detected by TCD (mean flow […] resp. Lindegaard-Index >3) or DSA (narrowing of vessel diameter >50%).

[6] = after oral administration; cited from earlier work
[7] = system: patients with SAH after aneurysmal rupture; assay: Side effects and monitoring of blood pressure (MAP), ICP and blood under Molsidomine i.v.
Protocol: In both groups blood pressure, intracranial pressure (ICP) and saturation measurement of blood oxygen were observed continuously. TCD was performed daily or on demand with investigation of the internal carotid artery (ACI), medial cerebral artery (MCA), anterior cerebral artery (ACA) and basilar artery (BA). For monitoring the clinical condition the GCS score (Glasgow Coma Score) was determined per hour
The drug used contains Molsidomine, as supplied by Sanofi-Aventis, Germany, in ampullae with 2 mg/molsidomine (Corvaton®). The dosage of Molsidomine was adapted to the systemic blood pressure.
The dosage was reduced if the MAP dropped below 65 mmHg despite infusion therapy (HES 6-10%) or a mild Arterenol® therapy (max dosage Arterenol® 0.1-0.2 μg/h, preferably at a dose of 0.1-0.3 mg/h or a dose of 0.1-0.2 μg/kg/min.). With increased need for Arterenol® the dosage of Molsidomine was reduced accordingly. Patients with cardiac low-output failure induced by preexistent cardiac failure, stop of perfusion during acute SAH itself or other reasons like sepsis received Molsidomine up-titrated in highest possible amount based on cardiac treatment or the treatment was interrupted for maximal 48 hours if Arterenol®-dosage escalated.
The treatment with Molsidimine was continued (either i.v. or subsequent orally 4×8 mg ret.) until mean flows in TCD were normalized. The duration of Molsodomine application was at least 8 days according to inclusion criteria: Appearance or presence of detectable CVS.

[8] = system: patients after brain hemorrhage, in particular SAH; conditions: under Nimodipine therapy; cited from earlier work
[9] = system: rat cerebral arterioles and venules; conditions: He-Ne laser; cited from earlier work
[10] = system: spontaneously hypertensive rats (SHRs); conditions: cited from earlier work
[11] = system: SAH group; conditions: administered 48 hours after SAH was induced; cited from earlier work
[12] = in vivo; cited from earlier work
[13] = infusion 3 min after MCA occlusion

COc1ccccc1Oc1c(NS(=O)(=O)c2ccc(C)cn2)nc(-c2ccnc(-c3nnn[nH]3)c2)nc1OCCO [Clazosentan]
treatment of CVS ([1]; in vivo): highly efficiency for the treatment of CVS
long-term outcome or clinical benefit ([1]; multicenter study): failed to show any effect on long-term outcome or clinical benefit

O=[N+]([O-])OCC(CO[N+](=O)[O-])O[N+](=O)[O-] [GTN, nitroglycerin]
effect on CVS and ischemia [2]: good prophylactic effect on CVS and ischemia

CCOC(=O)[N-]c1c[n+](N2CCOCC2)no1 [Molsidomine, N-ethoxycarbonyl-3-morpholinosydnonimine]
Spasmus related infarcts, Infarction (number of patients) ([3]; Hunt & Hess grade III°): 1
Spasmus related infarcts, Infarction (number of patients) ([3]; Hunt & Hess grade II°): 0
Spasmus related infarcts, Infarction (number of patients) ([3]; Hunt & Hess grade IV°): 1
Spasmus related infarcts, Infarction (number of patients) ([3]; Hunt & Hess grade I°): 1
Spasmus related infarcts, Infarction (number of patients) ([3]; Hunt & Hess grade V°): 0
patients who developed CVS associated infarcts (share of group) ([3]; all Hunt & Hess grades): 11.1%
patients who developed vasospasm associated brain infarctions / patients of the group ([3]; all Hunt & Hess grades): 3/27
patients who developed CVS associated infarcts (number) ([3]; all Hunt & Hess grades, groups of 49 (Nimodipine) and 27 (Molsidomine)): 3
Mean NIH >3 months (without deaths) ([4]; Hunt & Hess grade III°): 3.62
Mean mRS >3 months ([4]; Hunt & Hess grade III°): 1.75
Mean NIH >3 months (without deaths) ([4]; Hunt & Hess grade II°): 1
Mean mRS >3 months ([4]; Hunt & Hess grade II°): 1
Mean NIH >3 months (without deaths) ([4]; Hunt & Hess grade IV°): 3.8
Mean mRS >3 months ([4]; Hunt & Hess grade IV°): 1.6
Mean NIH >3 months (without deaths) ([4]; Hunt & Hess grade I°): 0
Mean mRS >3 months ([4]; Hunt & Hess grade I°): 1.75
Mean NIH >3 months (without deaths) ([4]; Hunt & Hess grade V°): 17
Mean mRS >3 months ([4]; Hunt & Hess grade V°): 4
clinical condition and long term outcome in the follow up ([4]; SAH-survivors): impressive improvement of clinical condition and long term outcome
clinical deterioration ([4]; SAH-survivors): no clinical deterioration
patients partly in work process again or to be reintegrated soon ([4]; follow up, normally approx. 5% return to work): 5/27
effect in terminating CVS ([5]; judged from equal number of intra-arterial Nimodipine treatments per individual): weak effect
TCD-values (flow velocities) ([5]; under Molsidomine treatment): trend in Transcranial Doppeler (TCD)-values towards normal velocities
absorption [6]: completely absorbed
adverse / side effects ([7]; Molsidomine i.v., target 3.5-10 mg/h): No adverse side effects were observed; also recorded: did not show any relevant side effects; also recorded: no serious, untreatable (i.e. severe hypotension) adverse effects were observed
depression of MAP, maximum ([7]; even with higher dosage): ≤ 10 mmHg
depression of blood pressure (systolic) ([7]; even with higher dosage): 10-20 mmHg
effect of fast reduction of dosage ([7]; regredient after increased Molsidomine levels): on/off phenomena or a rebound
Blood stains ([7]; under Molsidomine): normal
ICP ([7]; under Molsidomine): did not increase for short or longer periods
MAP kept ([7]; under Molsidomine): 65-70 mmHg

COCCOC(=O)C1=C(C)NC(C)=C(C(=O)OC(C)C)C1c1cccc([N+](=O)[O-])c1 (centres unmarked) [Nimodipine, 1,4-dihydro-2,6-dimethyl-4-(3-nitrophenyl)-3,5-pyridinedicarboxylic acid 2-methoxyethyl 1-methylethyl ester]
patients who developed vasospasm associated brain infarctions / patients of the group ([3]; all Hunt & Hess grades): 25/49
Mean NIH >3 months (without deaths) ([4]; Hunt & Hess grade III°): 10.6
Mean mRS >3 months ([4]; Hunt & Hess grade III°): 3.75
Mean NIH >3 months (without deaths) ([4]; Hunt & Hess grade II°): 0
Mean mRS >3 months ([4]; Hunt & Hess grade II°): 3
Mean NIH >3 months (without deaths) ([4]; Hunt & Hess grade IV°): 12.3
Mean mRS >3 months ([4]; Hunt & Hess grade IV°): 4.3
Mean NIH >3 months (without deaths) ([4]; Hunt & Hess grade I°): 0.5
Mean mRS >3 months ([4]; Hunt & Hess grade I°): 1.6
Mean NIH >3 months (without deaths) ([4]; Hunt & Hess grade V°): 38 (2 × exitus)
Mean mRS >3 months ([4]; Hunt & Hess grade V°): 5.7
associated DINDs [8]: 27-37%
spasm-associated infarcts [8]: 20-30%
spasm-associated infarcts detected by advanced CT-technique [8]: up to 50%
spasm-related mortality and high-grade morbidity [8]: 30-40%

N=c1c[n+](N2CCOCC2)[n-]o1 [SIN-1, 3-morpholinosydnonimine]
thrombus formation [9]: antithrombotic effect
recovery of cerebral blood flow (CBF) ([10]; after MCA occlusion): enhanced the recovery of cerebral blood flow (CBF)
size of the infarct ([10]; after MCA occlusion): reduced the size of the infarct
infarct [10, 13]: reduced the infarct
recovery of CBF and EEG amplitude [10, 13]: enhanced the recovery of CBF and EEG amplitude
CBF [11]: increased CBF
plasma protein binding [12]: no relevant plasma protein binding
